Read-outs that look alike come from different tables or passages of the source.
Tests used:
[1] = target: CK1ϵ (Homo sapiens (Human), UniProt P49674); test: LanthaScreen Eu kinase binding assay, CK1ϵ
[2] = target: CK1δ (Homo sapiens (Human), UniProt P48730); test: LanthaScreen Eu kinase binding assay, CK1δ
[3] = target: p38α MAPK (Homo sapiens (Human), UniProt Q16539); test: HitHunter p38 MAP kinase binding assay
[4] = test system: hESC3 Nkx2.5eGFP/w cells; test: Differentiation in 96-U bottom ultra-low attachment well plates, GFP area imaging; format: cell-based, human; details: 5 μM; for Average GFP %: after CHIR99021, read on day 14, GFP area over embryoid body size; for Average GFP μm^2 / Average Area μm^2: day 14; for Average Area μm^2: embryoid body size

Chain of CK1δ (P48730 whole entry): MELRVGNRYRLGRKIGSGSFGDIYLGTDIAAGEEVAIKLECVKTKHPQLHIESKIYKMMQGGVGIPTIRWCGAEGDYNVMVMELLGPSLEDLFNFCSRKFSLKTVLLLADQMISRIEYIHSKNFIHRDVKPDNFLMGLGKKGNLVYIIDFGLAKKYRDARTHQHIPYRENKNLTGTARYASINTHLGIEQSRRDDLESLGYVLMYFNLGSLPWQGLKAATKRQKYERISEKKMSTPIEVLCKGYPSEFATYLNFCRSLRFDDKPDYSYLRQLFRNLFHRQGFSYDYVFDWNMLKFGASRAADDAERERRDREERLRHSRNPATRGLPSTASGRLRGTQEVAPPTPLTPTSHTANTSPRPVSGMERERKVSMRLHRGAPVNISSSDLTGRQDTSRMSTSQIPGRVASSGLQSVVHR
Chain of CK1ϵ (P49674 whole entry): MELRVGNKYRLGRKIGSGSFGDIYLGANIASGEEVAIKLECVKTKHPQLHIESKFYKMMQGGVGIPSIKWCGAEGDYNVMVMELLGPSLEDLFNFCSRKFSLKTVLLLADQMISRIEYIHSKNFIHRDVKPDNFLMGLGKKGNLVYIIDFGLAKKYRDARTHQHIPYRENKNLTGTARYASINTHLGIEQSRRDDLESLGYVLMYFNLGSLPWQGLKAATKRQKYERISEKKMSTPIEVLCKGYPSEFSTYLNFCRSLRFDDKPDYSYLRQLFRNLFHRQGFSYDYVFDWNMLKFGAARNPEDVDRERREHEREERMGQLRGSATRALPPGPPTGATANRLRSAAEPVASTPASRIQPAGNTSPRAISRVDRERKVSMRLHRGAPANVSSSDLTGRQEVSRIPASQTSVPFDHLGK
Chain of p38α MAPK (Q16539 whole entry, looked up): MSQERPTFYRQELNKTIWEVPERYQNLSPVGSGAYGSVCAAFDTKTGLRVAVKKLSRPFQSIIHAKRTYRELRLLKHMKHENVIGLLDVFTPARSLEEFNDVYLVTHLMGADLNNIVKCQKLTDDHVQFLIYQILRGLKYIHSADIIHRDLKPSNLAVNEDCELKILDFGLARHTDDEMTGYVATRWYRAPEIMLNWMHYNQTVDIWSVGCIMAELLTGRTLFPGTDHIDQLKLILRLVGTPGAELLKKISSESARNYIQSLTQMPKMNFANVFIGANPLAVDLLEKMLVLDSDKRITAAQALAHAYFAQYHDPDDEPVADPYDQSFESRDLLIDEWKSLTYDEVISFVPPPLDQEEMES

| Compound | IC50 ([1]; Table 3, read-out: IC50 Ck1ε) | IC50 ([1]; read-out: CK1ϵ IC50 ± SEM) | IC50 ([2]; Table 3, read-out: IC50 CK1δ) | IC50 ([2]; read-out: CK1δ IC50 ± SEM) | IC50 ([3]; read-out: p38α MAPK IC50 ± SEM) | further results |
| --- | --- | --- | --- | --- | --- | --- |
| Fc1ccc(-c2nc(-c3ccccc3F)[nH]c2C2=CCOCC2)cc1 [IM-20, 5(4)-(3,6-dihydro-2H-pyran-4-yl)-2-(2-fluorophenyl)-4(5)-(4-fluorophenyl)-1H-imidazole] | 1140 nM | 1140 ± 287 nM | 1520 nM | 1520 ± 825 nM | 0.561 ± 0.141 µM | – |
| Cc1cccc(-c2nc(-c3ccc(O)cc3)[nH]c2-c2ccncc2)c1 [IM-27] | 411 nM | 411 ± 120 nM | 1280 nM | 1280 ± 828 nM | 0.0084 ± 0.003 µM | – |
| Cc1ccc(-c2nc(-c3ccccc3F)[nH]c2C2=CCOCC2)cc1 [IM-21, 5(4)-(3,6-dihydro-2H-pyran-4-yl)-2-(2-fluorophenyl)-4(5)-(p-tolyl)-1H-imidazole] | – | – | – | – | 3.37 ± 0.824 µM | CK1ϵ inhibition at 1 μM [1]: No inhibition at 1 μM; CK1δ inhibition at 1 μM [2]: No inhibition at 1 μM |
| COc1ccc2cc(-c3nc(-c4cccc(C)c4)c(C4=CCOCC4)[nH]3)ccc2c1 [IM-09, 5(4)-(3,6-dihydro-2H-pyran-4-yl)-2-(6-methoxynaphthalen-2-yl)-4(5)-(m-tolyl)-1H-imidazole] | – | – | – | – | 2.35 ± 0.374 µM | CK1ϵ inhibition at 1 μM [1]: No inhibition at 1 μM; inhibition at 1 µM [2]: 13% |
| Oc1ccc(-c2nc(-c3ccc(F)cc3)c(C3=CCOCC3)[nH]2)cc1 [IM-24, 4-(5(4)-(3,6-dihydro-2H-pyran-4-yl)-4(5)-(4-fluorophenyl)-1H-imidazol-2-yl)phenol] | – | – | – | – | 0.149 ± 0.033 µM | CK1ϵ inhibition at 1 μM [1]: No inhibition at 1 μM; inhibition at 1 µM [2]: 14% |
| Cc1cccc(-c2nc(-c3ccc([S+](C)[O-])cc3)[nH]c2C2=CCOCC2)c1 (stereo not drawn) [IM-16] | 5610 nM | 5610 ± 319 nM | 2540 nM | 2540 nM | 0.073 ± 0.021 µM | – |
| Fc1c(-c2nc(-c3cccc(C(F)(F)F)c3)c(-c3ccncc3)[nH]2)ccc2ccccc12 [IM-02, 4-(2-(1-fluoronaphthalen-2-yl)-4(5)-(3-(trifluoromethyl)phenyl)-1H-imidazol-5(4)-yl)pyridine] | – | – | – | – | 2.66 ± 0.466 µM | CK1ϵ inhibition at 1 μM [1]: No inhibition at 1 μM; CK1δ inhibition at 1 μM [2]: No inhibition at 1 μM |
| Cc1cccc(-c2nc(-c3ccc4ccccc4c3)[nH]c2-c2ccncc2)c1 [IM-01, 4-(2-(naphthalen-2-yl)-4(5)-(m-tolyl)-1H-imidazol-5(4)-yl)pyridine] | – | – | – | – | 0.098 ± 0.011 µM | inhibition at 1 µM [1]: 6%; inhibition at 1 µM [2]: 5% |
| Cc1cccc(-c2nc(-c3c(F)cccc3F)[nH]c2-c2ccncc2)c1 [IM-26] | 44 nM | 44 ± 5 nM | 78 nM | 78 ± 20 nM | 0.0043 ± 0.0017 µM | – |
| C[S+]([O-])c1ccc(-c2nc(-c3ccc(F)cc3)c(C3=CCOCC3)[nH]2)cc1 (stereo not drawn) [IM-25] | 5890 nM | 5890 ± 180 nM | 1490 nM | 1490 ± 285 nM | 0.454 ± 0.067 µM | – |
| Cc1cccc(-c2nc(-c3ccc4ccccc4c3F)[nH]c2-c2ccncc2)c1 [IM-04] | 277 nM | 277 ± 40 nM | 490 nM | 490 ± 66 nM | 0.02 ± 0.007 µM | – |
| Fc1ccc(-c2nc(-c3c(F)cccc3F)[nH]c2C2=CCOCC2)cc1 [IM-23, 2-(2,6-difluorophenyl)-5(4)-(3,6-dihydro-2H-pyran-4-yl)-4(5)-(4-fluorophenyl)-1H-imidazole] | 751 nM | 751 ± 168 nM | 548 nM | 548 ± 116 nM | 0.055 ± 0.014 µM | – |
| C[S+]([O-])c1ccc(-c2nc(-c3ccncc3)c(-c3ccc(F)cc3)o2)cc1 (stereo not drawn) [OZ-12, 5-(4-fluorophenyl)-2-(4-(methylsulfinyl)phenyl)-4-(pyridin-4-yl)oxazole] | – | – | – | – | – | inhibition at 1 µM [1]: 51%; inhibition at 1 µM [2]: 34%; IC50 ([3]; bound given in μM, read-out: p38α MAPK IC50): > 5 µM |
| Cc1cccc(-c2nc(-c3ccc([N+](=O)[O-])cc3)[nH]c2C2=CCOCC2)c1 [IM-17, 5(4)-(3,6-dihydro-2H-pyran-4-yl)-2-(4-nitrophenyl)-4(5)-(m-tolyl)-1H-imidazole] | – | – | – | – | 0.02 ± 0.002 µM | CK1ϵ inhibition at 1 μM [1]: No inhibition at 1 μM; inhibition at 1 µM [2]: 17% |
| Cc1cccc(-c2nc(-c3ccccc3Cl)[nH]c2C2=CCOCC2)c1 [IM-12, 2-(2-chlorophenyl)-5(4)-(3,6-dihydro-2H-pyran-4-yl)-4(5)-(m-tolyl)-1H-imidazole] | – | – | – | – | 0.043 ± 0.002 µM | inhibition at 1 µM [1]: 10%; inhibition at 1 µM [2]: 23% |
| Cc1cccc(-c2nc(-c3ccccc3F)[nH]c2-c2ccncc2)c1 [IM-19] | 150 nM | 150 ± 89 nM | 454 nM | 454 ± 28 nM | 0.0047 ± 0.0012 µM | – |
| Cc1cccc(-c2nc(-c3ccccc3)[nH]c2C2=CCOCC2)c1 [IM-11, 5(4)-(3,6-dihydro-2H-pyran-4-yl)-2-phenyl-4(5)-(m-tolyl)-1H-imidazole] | – | – | – | – | 0.526 ± 0.137 µM | CK1ϵ inhibition at 1 μM [1]: No inhibition at 1 μM; CK1δ inhibition at 1 μM [2]: No inhibition at 1 μM |
| Fc1ccc(-c2nc(-c3ccc4ccccc4c3F)[nH]c2-c2ccncc2)cc1 [IM-29, 4-(2-(1-fluoronaphthalen-2-yl)-4(5)-(4-fluorophenyl)-1H-imidazol-5(4)-yl)pyridine] | – | 16 ± 3 nM | 15 nM | 15 ± 3 nM | 0.073 ± 0.017 µM | IC50 ([1]; read-out: IC50 Ck1ε): 16 nM |
| Cc1cccc(-c2nc(-c3ccc4ccccc4c3F)[nH]c2C2=CCOCC2)c1 [IM-03, 5(4)-(3,6-dihydro-2H-pyran-4-yl)-2-(1-fluoronaphthalen-2-yl)-4(5)-(m-tolyl)-1H-imidazole] | – | – | – | – | 0.262 ± 0.073 µM | CK1ϵ inhibition at 1 μM [1]: No inhibition at 1 μM; CK1δ inhibition at 1 μM [2]: No inhibition at 1 μM |
| Cc1cccc(-c2nc(-c3ccc([S+](C)[O-])cc3)[nH]c2-c2ccncc2)c1 (stereo not drawn) [IM-28] | 274 nM | 274 ± 7 nM | 708 nM | 708 ± 43 nM | 0.024 ± 0.009 µM | – |
| C[S+]([O-])c1ccc(-c2nc(-c3ccc(F)cc3)c(-c3ccncc3)o2)cc1 (stereo not drawn) [OZ-06] | – | – | – | – | 0.314 ± 0.044 µM | inhibition at 1 µM [1]: 54%; inhibition at 1 µM [2]: 46% |
| Cc1cccc(-c2nc(-c3ccccc3Br)[nH]c2C2=CCOCC2)c1 [IM-13, 2-(2-bromophenyl)-5(4)-(3,6-dihydro-2H-pyran-4-yl)-4(5)-(m-tolyl)-1H-imidazole] | – | – | – | – | 0.019 ± 0.002 µM | inhibition at 1 µM [1]: 23%; inhibition at 1 µM [2]: 23% |
| COc1ccccc1-c1nc(-c2ccc(F)cc2)c(-c2ccncc2)[nH]1 [ZQX-16, 4-[2-(2-methoxyphenyl)-4(5)-(4-fluorophenyl)-1H-imidazol-5(4)-yl]pyridine] | – | – | – | – | – | Average GFP % ([4]; Induction Day 2): 32.8%; Average GFP μm^2 ([4]; Induction Day 2): 184.7 μm^2; Average Area μm^2 ([4]; Induction Day 2): 576.1 μm^2; Average GFP % ([4]; Induction Day 3): 14.5%; Average GFP μm^2 ([4]; Induction Day 3): 125.6 μm^2; Average Area μm^2 ([4]; Induction Day 3): 950.3 μm^2 |
| Fc1ccc(-c2nc(-c3ccccc3)[nH]c2-c2ccncc2)cc1 [ZQX-14, 4-[4(5)-(4-fluorophenyl)-2-phenyl-1H-imidazol-5(4)-yl]pyridine] | – | – | – | – | – | Average GFP % ([4]; Induction Day 2): 42.4%; Average GFP μm^2 ([4]; Induction Day 2): 335.6 μm^2; Average Area μm^2 ([4]; Induction Day 2): 810.7 μm^2; Average GFP % ([4]; Induction Day 3): 5.9%; Average GFP μm^2 ([4]; Induction Day 3): 91.6 μm^2; Average Area μm^2 ([4]; Induction Day 3): 1474.4 μm^2 |
| Fc1ccc(-c2nc(-c3c(F)cccc3I)[nH]c2-c2ccncc2)cc1 [ZQX-30, 4-[2-(2-fluoro-6-iodophenyl)-4(5)-(4-fluorophenyl)-1H-imidazol-5(4)-yl]pyridine] | – | – | – | – | – | Average GFP % ([4]; Induction Day 2): 4.6%; Average GFP μm^2 ([4]; Induction Day 2): 60.9 μm^2; Average Area μm^2 ([4]; Induction Day 2): 1361.8 μm^2; Average GFP % ([4]; Induction Day 3): 12.6%; Average GFP μm^2 ([4]; Induction Day 3): 128.3 μm^2; Average Area μm^2 ([4]; Induction Day 3): 1142.4 μm^2 |
| O=C(Nc1cccc2cccnc12)c1ccc(N2C(=O)[C@@H]3[C@H](C2=O)[C@@H]2C=C[C@H]3C2)cc1 [IWR-1, reference compound] | – | – | – | – | – | Average GFP % ([4]; Induction Day 2): 41.3%; Average GFP μm^2 ([4]; Induction Day 2): 308.9 μm^2; Average Area μm^2 ([4]; Induction Day 2): 763.0 μm^2; Average GFP % ([4]; Induction Day 3): 51.1%; Average GFP μm^2 ([4]; Induction Day 3): 426.3 μm^2; Average Area μm^2 ([4]; Induction Day 3): 831.4 μm^2 |
| CCc1nc(-c2cccc(C)c2)c(-c2ccnc(NC(=O)c3ccccc3)c2)s1 [TAK 715, reference compound] | 107 nM | – | – | – | – | – |

— US10865384B2, “2,4,5-tri-substituted azole-based casein kinase 1 inhibitors as inducers for cardiomyogenesis” (AGENCY FOR SCIENCE, TECHNOLOGY AND RESEARCH, priority 2014, dated 2020)
